One block for each compound: values may come before it. Activity calls are given as the source filed them.
Legend:
[1] = molecular target: T1, Runt-related transcription factor 1/Core-binding factor subunit beta (Homo sapiens, UniProt Q01196+Q13951); assay: inhibitors of RUNX1 Runt–CBFb-SMMHC binding, primary screen, biochemical, FRET, Cerulean-Runt, Venus-CBFb-SMMHC, uHTS (AID 1434); assay type: protein assay;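 note: partner is the CBFb-SMMHC leukemia fusion protein rather than wild-type CBFb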
[2] = molecular target: T1, Runt-related transcription factor 1/Core-binding factor subunit beta; assay: inhibitors of RUNX1 Runt–CBFb-SMMHC binding, biochemical, TR-FRET (AID 1438); assay type: protein assay
[3] = molecular target: Induced myeloid leukemia cell differentiation protein Mcl-1 (Homo sapiens, UniProt Q07820); assay type: functional
Chain of Induced myeloid leukemia cell differentiation protein Mcl-1 (Q07820 whole entry): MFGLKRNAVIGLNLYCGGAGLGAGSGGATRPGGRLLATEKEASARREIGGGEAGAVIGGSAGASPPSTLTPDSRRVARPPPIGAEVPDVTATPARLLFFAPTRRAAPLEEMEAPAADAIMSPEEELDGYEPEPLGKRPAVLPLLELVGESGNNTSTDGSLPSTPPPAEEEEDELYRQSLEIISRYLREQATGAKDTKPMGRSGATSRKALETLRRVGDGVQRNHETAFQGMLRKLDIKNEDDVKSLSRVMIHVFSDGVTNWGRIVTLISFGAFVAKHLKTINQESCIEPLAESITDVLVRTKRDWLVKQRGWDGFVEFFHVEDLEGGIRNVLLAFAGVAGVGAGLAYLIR

[4] = molecular target: T2, Corticotropin-releasing factor receptor 2/Corticotropin-releasing factor-binding protein (Homo sapiens, UniProt P24387+Q13324); assay: activators of CRF receptor 2 with binding protein – uHTS hits, confirmation (AID 602473); assay type: functional; conditions: read-out: EC50_Mean
T2 sequence (Q13324 whole entry): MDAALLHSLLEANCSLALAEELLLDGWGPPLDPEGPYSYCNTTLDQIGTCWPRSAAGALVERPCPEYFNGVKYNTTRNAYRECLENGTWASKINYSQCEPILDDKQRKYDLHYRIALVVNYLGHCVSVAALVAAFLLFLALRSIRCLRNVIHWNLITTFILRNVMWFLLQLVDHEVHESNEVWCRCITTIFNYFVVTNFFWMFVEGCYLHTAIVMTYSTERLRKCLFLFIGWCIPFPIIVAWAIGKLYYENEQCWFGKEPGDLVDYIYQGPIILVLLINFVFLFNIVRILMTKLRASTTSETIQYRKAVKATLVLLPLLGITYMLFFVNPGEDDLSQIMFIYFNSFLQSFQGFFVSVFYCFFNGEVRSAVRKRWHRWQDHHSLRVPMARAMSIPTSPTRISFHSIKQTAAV
T2 sequence (P24387 whole entry): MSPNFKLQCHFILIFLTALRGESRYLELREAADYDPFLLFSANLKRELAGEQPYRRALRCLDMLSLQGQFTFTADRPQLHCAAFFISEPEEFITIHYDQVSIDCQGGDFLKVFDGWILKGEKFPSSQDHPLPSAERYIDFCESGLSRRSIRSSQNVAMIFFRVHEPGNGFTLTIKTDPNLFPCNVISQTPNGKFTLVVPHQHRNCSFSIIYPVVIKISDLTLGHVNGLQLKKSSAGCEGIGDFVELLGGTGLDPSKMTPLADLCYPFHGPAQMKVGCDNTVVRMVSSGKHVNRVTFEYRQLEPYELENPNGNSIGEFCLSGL

[5] = molecular target: T3, Probable nicotinate-nucleotide adenylyltransferase (Staphylococcus aureus (strain N315), UniProt P65502); assay type: functional, Staphylococcus aureus subsp. aureus N315;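 for IC50 Mean: confirmatory dose-response retesting of NadD inhibitor hits first found in an ultra-high-throughput screen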
[6] = molecular target: T3, Probable nicotinate-nucleotide adenylyltransferase; assay type: functional, Staphylococcus aureus subsp. aureus N315; conditions: read-out: IC50_Mean
[7] = molecular target: T4, Low molecular weight phosphotyrosine protein phosphatase (Homo sapiens, UniProt P24666); assay type: functional; conditions: read-out: IC50_Mean;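 note: Dose-response confirmation assay measuring inhibition of LMPTP enzyme activity by fluorescence intensity read-out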
T4 sequence (P24666 whole entry): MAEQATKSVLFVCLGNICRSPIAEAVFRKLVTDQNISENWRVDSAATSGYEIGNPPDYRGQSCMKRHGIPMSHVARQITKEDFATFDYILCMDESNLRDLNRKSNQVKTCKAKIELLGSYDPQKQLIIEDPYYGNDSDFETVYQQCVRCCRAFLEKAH

[8] = molecular target: T5, Tyrosine-protein phosphatase non-receptor type 7 (Homo sapiens, UniProt P35236); assay type: functional
T5 sequence (P35236 whole entry): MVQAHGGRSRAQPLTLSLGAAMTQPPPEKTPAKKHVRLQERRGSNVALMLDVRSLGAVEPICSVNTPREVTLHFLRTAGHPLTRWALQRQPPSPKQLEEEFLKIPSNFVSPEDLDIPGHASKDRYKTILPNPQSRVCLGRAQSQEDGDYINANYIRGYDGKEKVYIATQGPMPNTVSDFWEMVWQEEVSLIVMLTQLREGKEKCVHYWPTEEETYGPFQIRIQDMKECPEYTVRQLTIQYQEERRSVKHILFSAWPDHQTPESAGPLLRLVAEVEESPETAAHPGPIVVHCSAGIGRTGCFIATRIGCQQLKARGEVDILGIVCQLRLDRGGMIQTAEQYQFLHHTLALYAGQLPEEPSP

[9] = molecular target: T6, Tyrosine-protein phosphatase non-receptor type 22 (Homo sapiens, UniProt Q9Y2R2); assay type: functional
T6 sequence (Q9Y2R2 whole entry): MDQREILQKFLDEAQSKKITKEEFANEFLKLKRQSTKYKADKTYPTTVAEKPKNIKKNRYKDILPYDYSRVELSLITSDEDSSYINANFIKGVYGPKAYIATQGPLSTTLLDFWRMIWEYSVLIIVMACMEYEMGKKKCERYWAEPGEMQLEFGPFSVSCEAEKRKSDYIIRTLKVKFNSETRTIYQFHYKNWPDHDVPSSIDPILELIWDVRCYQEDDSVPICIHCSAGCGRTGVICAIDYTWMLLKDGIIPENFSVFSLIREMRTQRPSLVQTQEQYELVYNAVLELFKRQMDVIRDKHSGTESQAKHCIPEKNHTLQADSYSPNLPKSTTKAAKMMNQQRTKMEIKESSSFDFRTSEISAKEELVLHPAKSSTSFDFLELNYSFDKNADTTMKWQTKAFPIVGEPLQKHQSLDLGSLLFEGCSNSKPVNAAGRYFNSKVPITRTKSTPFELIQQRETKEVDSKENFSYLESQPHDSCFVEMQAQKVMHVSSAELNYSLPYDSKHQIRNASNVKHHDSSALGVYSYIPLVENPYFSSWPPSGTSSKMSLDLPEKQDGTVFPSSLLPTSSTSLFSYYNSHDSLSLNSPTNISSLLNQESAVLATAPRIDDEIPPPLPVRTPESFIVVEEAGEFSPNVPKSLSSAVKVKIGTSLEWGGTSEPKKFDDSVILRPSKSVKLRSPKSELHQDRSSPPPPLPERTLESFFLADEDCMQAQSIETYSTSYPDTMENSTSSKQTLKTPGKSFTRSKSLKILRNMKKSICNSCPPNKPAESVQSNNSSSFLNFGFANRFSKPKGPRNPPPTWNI

[10] = molecular target: T6, Tyrosine-protein phosphatase non-receptor type 22; assay type: functional; remark: listed apart in the source
Coagulation factor XII = Coagulation factor XII (Homo sapiens, UniProt P00748); assay type: functional;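 note: activated factor XIIa alpha cleaving a fluorogenic AMC peptide substrate; inhibitor potency from loss of enzyme activity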
Chain of Coagulation factor XII (P00748 20-372 limits assumed): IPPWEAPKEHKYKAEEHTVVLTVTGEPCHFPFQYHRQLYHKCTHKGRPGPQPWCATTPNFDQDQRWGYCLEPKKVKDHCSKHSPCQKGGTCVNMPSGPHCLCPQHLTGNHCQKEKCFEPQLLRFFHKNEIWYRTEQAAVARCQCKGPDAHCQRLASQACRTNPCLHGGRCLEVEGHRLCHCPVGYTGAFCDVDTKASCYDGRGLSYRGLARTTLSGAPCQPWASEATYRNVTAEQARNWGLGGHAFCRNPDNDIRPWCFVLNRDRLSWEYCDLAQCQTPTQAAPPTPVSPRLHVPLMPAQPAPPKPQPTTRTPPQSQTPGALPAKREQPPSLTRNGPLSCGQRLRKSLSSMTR
Chain of Coagulation factor XII (P00748 373-615 limits assumed): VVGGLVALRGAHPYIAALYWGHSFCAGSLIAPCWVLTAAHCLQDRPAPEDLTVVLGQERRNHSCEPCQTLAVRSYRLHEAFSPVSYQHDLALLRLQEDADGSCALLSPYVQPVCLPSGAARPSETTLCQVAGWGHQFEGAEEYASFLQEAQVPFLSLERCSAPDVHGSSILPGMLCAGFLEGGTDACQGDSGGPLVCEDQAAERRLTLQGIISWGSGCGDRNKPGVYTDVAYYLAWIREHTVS

T1 sequence (Q01196 whole entry, the tested form may be a part): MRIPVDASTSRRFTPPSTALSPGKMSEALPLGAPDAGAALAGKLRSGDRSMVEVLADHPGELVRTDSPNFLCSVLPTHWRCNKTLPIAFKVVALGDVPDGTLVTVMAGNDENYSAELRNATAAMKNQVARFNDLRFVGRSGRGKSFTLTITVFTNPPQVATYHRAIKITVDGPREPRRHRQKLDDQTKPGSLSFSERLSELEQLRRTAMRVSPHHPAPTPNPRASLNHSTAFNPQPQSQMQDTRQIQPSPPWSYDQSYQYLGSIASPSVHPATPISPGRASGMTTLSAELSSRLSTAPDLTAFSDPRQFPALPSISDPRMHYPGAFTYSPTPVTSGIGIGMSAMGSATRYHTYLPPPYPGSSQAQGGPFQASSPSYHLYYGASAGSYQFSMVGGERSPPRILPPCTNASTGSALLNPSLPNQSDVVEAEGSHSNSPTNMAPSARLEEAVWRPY
T1 sequence (Q13951 whole entry, the tested form may be a part): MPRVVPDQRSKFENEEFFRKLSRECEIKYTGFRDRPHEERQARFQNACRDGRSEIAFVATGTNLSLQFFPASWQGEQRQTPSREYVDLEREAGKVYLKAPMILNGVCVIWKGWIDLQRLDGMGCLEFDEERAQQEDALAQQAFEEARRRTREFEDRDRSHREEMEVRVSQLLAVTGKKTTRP

Compound: Oc1nc(C(Cl)Cl)nc2sc3c(c12)CCN(Cc1ccccc1)C3
IC50 [1]: 2.89 µM (active) | IC50 [2]: 13.4 µM (active) | IC50 [3]: 3.75 µM (not active) | EC50 [4]: > 53 µM (inactive) | IC50 [5]: 9.04 µM (active) | IC50 [6]: 18.7 µM (active) | IC50 [7]: 7.87 µM (active)

IC50 [8]: > 79.4 µM (inactive) | IC50 [9]: > 79.4 µM (inactive) | IC50 [10]: > 79.4 µM (inactive)
Compound: CCCC(=O)NCCc1cc2ccc(C)c(C)c2nc1O

IC50 (Coagulation factor XII): > 50 µM (inactive)
Compound: COc1cc(-c2nnco2)cc(OC)c1OC
